Reference: patent publication US20040255959A1, “Method and compounds to decrease the incidence of atrial fibrillation (AF) in patients with left ventricular dysfunction” (priority 2003, published 2004)

How the values were obtained:
[1] = test system: atrial refractory period during rapid atrial pacing; settings: in vivo; cited from earlier work
[2] = test system: animals with HF induced by rapid ventricular pacing; settings: given at the onset of pacing, animals followed for 5 weeks; cited from earlier work
[3] = test system: patients with left ventricular dysfunction; experiment: Retrospective analysis of Montreal Heart Institute patients randomized in SOLVD: development of atrial fibrillation, enalapril versus placebo; type: in vivo, human
Text: The patients of the Montreal Heart Institute who were enrolled in the SOLVD trials constituted the study population. SOLVD was a multicenter, double-blinded, randomized, placebo-controlled trial which evaluated the effect of the ACEi enalapril on survival in patients with left ventricular (LV) dysfunction (ejection fraction≦35%).^12,13 The design of the study has been reported previously.^13 Briefly, from June 1986 to August 1991, 4228 patients with asymptomatic or mildly symptomatic (not requiring treatment with digitalis, diuretics or vasodilators for heart failure at study entry) LV dysfunction (LVEF≦0.35) were included in the prevention trial and 2569 patients with overt congestive HF in the treatment trial.^14 Patients were randomized to enalapril (5-20 mg/day) or placebo. Exclusion criteria included: age>80 years, unstable angina, myocardial infarction in the previous month, severe pulmonary disease, renal insufficiency (creatinine level>[…]), current ACEi use or intolerance to ACEi. Follow-up visits were scheduled 2 and 6 weeks after randomization and every 4 months until the end of the study, for a mean follow-up of 3.4 and 3.1 years for the treatment and prevention trials, respectively.
Baseline characteristics, past medical history and drug therapy at the time of enrolment were obtained from the SOLVD databases. Serial electrocardiograms (ECG) were not collected specifically for the SOLVD trials. However, the routine clinical follow-up of patients at our institution usually included a 12-lead ECG. Thus, the medical file of each patient was carefully reviewed and a single experienced cardiologist, blinded to treatment allocation, interpreted every ECG.
AF was defined as rapid oscillations or fibrillatory waves that vary in size, shape and timing, associated with an irregular, frequently rapid ventricular response. For the purposes of the study, paroxysmal AF was defined as episodes in which the patient reverted to sinus rhythm spontaneously, with medical therapy orwith a single cardioversion, whereas patients who remained in AF despite changes in medical therapy and/or cardioversion were defined as persistent AF. Episodes occurring during a 24-hour Holter monitoring were also considered. The end-points were the development and time to first occurrence of AF on either one 12-lead ECG and/or a 24-hour Holter monitoring recorded during any available follow-up visits (including research, outpatient clinic or emergency room visits). Participants with significant supraventricular arrhythmia on the baseline ECG (AF or flutter) were excluded. Patients with a history of arrhythmia (either supraventricular or ventricular) but who were in sinus rhythm on the ECG at the time of randomization were included.
The baseline characteristics of the two groups were compared using student t-test for continuous variables and chi-square test for categorical variables. The incidence of AF between the two groups was compared with the chi-square test. Time to the first occurrence of AF during the follow-up was analyzed with Kaplan-Meier curves and compared with the log-rank test. To analyze the effect of enalapril on development of AF, a Cox regression analysis was used to take into account the effect of potential confounding baseline variables (age, sex, NYHA class, history of supraventricular or ventricular arrhythmia, ischemic etiology, diabetes and ejection fraction) and time-dependent variables (systolic blood pressure, diastolic blood pressure, pulse pressure, serum potassium and drug therapy). Cox proportional-hazard models were performed for each variable with treatment (enalapril) forced in all models. Variables with a p-value≦0.2 were included in a multivariate Cox proportional hazard model.
Subgroup analysis was conducted with chi-square test. Preliminary assumptions were verified prior to all analysis. A p-value≦0.05 was considered statistically significant. […]

[4] = test system: patients with persistent AF; settings: started 3 weeks before electrical cardioversion and combined with amiodarone; cited from earlier work
[5] = test system: patients shortly after an acute myocardial infarction with depressed LV function; settings: trandolapril versus placebo, 2-4 years of follow-up in TRACE; cited from earlier work
[6] = patients with AF in enalapril group, n = 10

CCOc1nc2cccc(C(=O)O)c2n1Cc1ccc(-c2ccccc2-c2nnn[nH]2)cc1 [candesartan]
shortening of the atrial refractory period during rapid atrial pacing [1]: prevented

C[C@H](CS)C(=O)N1CCC[C@H]1C(=O)O [captopril]
shortening of the atrial refractory period during rapid atrial pacing [1]: prevented

CCOC(=O)[C@H](CCc1ccccc1)N[C@@H](C)C(=O)N1CCC[C@H]1C(=O)O [enalapril]
atrial fibrosis [2]: significant reduction
atrial structural changes in HF induced by rapid ventricular pacing [2]: attenuated
vulnerability of the animals to AF [2]: decreased vulnerability
patients presenting ≥1 episode of AF ([3]; 2.9 years of follow-up, enalapril group n = 186, 5-20 mg/day, placebo 45): 10 patients
patients presenting ≥1 episode of AF (percentage) ([3]; 2.9 years of follow-up, enalapril group n = 186, placebo 24%, p<0.001): 5.4%
probability of remaining in sinus rhythm during follow-up ([3]; Kaplan-Meier, enalapril versus placebo, p<0.0001, FIG. 1): significantly higher
Hazard ratio for incidence of AF, Cox multivariate analysis ([3]; allocation to enalapril, 95% CI 0.11-0.44, p<0.0001): 0.22
risk of developing AF in patients with LV dysfunction ([3]; chronic ACEi therapy with enalapril): markedly reduces
absolute risk reduction of AF ([3]; enalapril versus placebo, 2.9 years of follow-up): 18.6%
patients developing AF (percentage), patients with a history of supraventricular arrhythmia excluded ([3]; n=21 excluded, placebo 23%, p<0.0001): 4.5%
patients developing AF, patients with a history of supraventricular arrhythmia excluded ([3]; n=21 excluded, placebo 40 patients): 8 patients
AF Detection: 12-leads ECG (number) [3, 6]: 10
AF Detection: 12-leads ECG (percentage) [3, 6]: 100%
AF Detection: Holter monitoring (number) [3, 6]: 0 (0%)
AF Detection: Holter monitoring (percentage) [3, 6]: 0 (0%)
AF Requiring: electrical cardioversion (number) [3, 6]: 1
AF Requiring: electrical cardioversion (percentage) [3, 6]: 10%
AF Requiring: hospitalization (number) [3, 6]: 8
AF Requiring: hospitalization (percentage) [3, 6]: 80%
Paroxysmal AF (number) [3, 6]: 8
Paroxysmal AF (percentage) [3, 6]: 80%
Persistent AF (number) [3, 6]: 2
Persistent AF (percentage) [3, 6]: 20%
patients developing AF, SOLVD prevention arm ([3]; prevention arm (251 patients), placebo 31 patients): 4 patients
patients developing AF (percentage), SOLVD prevention arm ([3]; prevention arm, placebo 24.6%, p<0.0001): 3.2%
patients with CHF needed to be treated to prevent one episode of AF ([3]; treated for 2.9 years): 5 patients
patients developing AF, SOLVD treatment arm ([3]; treatment arm (123 patients), placebo 14): 6 patients
patients developing AF (percentage), SOLVD treatment arm ([3]; treatment arm, placebo 22.6%, P=0.055): 9.8%

CCCCC1=NC2(CCCC2)C(=O)N1Cc1ccc(-c2ccccc2-c2nnn[nH]2)cc1 [irbesartan]
effect on AF recurrence [4]: beneficial effect

CCOC(=O)[C@H](CCc1ccccc1)N[C@@H](C)C(=O)N1[C@H](C(=O)O)C[C@H]2CCCC[C@@H]21 [trandolapril]
absolute risk reduction on the incidence of AF [5]: 2.5%
